From patent US6716829B2, “Aldosterone antagonist and cyclooxygenase-2 inhibitor combination therapy to prevent or treat inflammation-related cardiovascular disorders” (Pharmacia Corporation, priority 2000, dated 2004)
Where “and” joins values, the source holds several entries; their conditions need not be identical. Equal entries are not always repeated.

Test system: Atrial natriuretic factor (ANP)
Test: Assay C: ANP mRNA in left ventricle by TaqMan RT-PCR
Format: in vivo, Male Sprague-Dawley rats
Conditions: for ANP mRNA: arbitrary units relative to cyclophilin expression; for ANP mRNA (AU): mean ± SEM after 30 days of treatment, eplerenone dose 100 mg/kg/day, relative to cyclophilin expression
Procedure: The procedure of Assay B was expanded upon in a further study. […] Myocardial tissue from animals in each treatment group was examined after 7, 14, or 30 days of treatment.
Potassium chloride supplementation was added to the saline solution in order to prevent the potential hypokalemia associated with aldosterone excess.
At the time of the surgery, an Alzet 2002 osmotic minipump (Alza Corp., Palo Alto, Calif.) containing either vehicle (9% ethanol/87% propylene glycol/4% dH2O) or 1.0 mg/mL d-aldosterone (Sigma Chemical, St. Louis, Mo.) was inserted subcutaneously at the nape of the neck. Aldosterone was administered at a dose of 0.75 µg/hour. […] Animals were sacrificed from each group (n=8-13) after 7, 14, or 30 days of treatment.
Following exsanguination, hearts and kidneys were isolated, removed, rinsed in cold phosphate-buffered saline, and blotted dry. Kidneys were immediately bifurcated through the long axis with a razor blade and placed in 10% neutral buffered formalin (NBF, Richard-Allen Scientific, Kalamazoo, Mich.). For the hearts, the right ventricle (RV) was cut away from the left ventricle (LV), both ventricles were weighed using a Mettler AE163 balance (Mettler-Toledo, Inc., Hightstown, N.J.), and the RV was placed in 10% NBF. A 2 mm coronal slab of the LV apex was removed and frozen with dry ice/isopentane for analysis of gene expression and the remaining portion of the LV was placed in 10% NBF for fixation. Final wet trimming was completed after 3-4 days fixation where a second 2 mm coronal slab was removed for hydroxyproline analysis and a third 2 mm slab was removed from the equatorial region for histology.
The fluorogenic 5′-nuclease assay (TaqMan PCR) using Applied Biosystems' 7700 Sequence Detection System (Applied Biosystems, Foster City, Calif.) allowed for real time detection/quantitation of a specific gene by monitoring the increase in fluorescence of a gene-specific, dye-labeled oligonucleotide probe. Probes for target and reference genes were labeled at the 5′-end with a 6-carboxyfluorescein (6FAM) reporter dye and at the 3′-end with a 6-carboxy-N,N,N′,N′-tetramethylrhodamine (TAMRA) quencher dye. When the probe was annealed to the target gene, fluorescence of 6FAM was prevented by the close proximity of TAMRA. The exonuclease activity of Taq polymerase released the dyes from the oligonucleotide probe by displacing the probe from the target sequence resulting in fluorescence excitation in direct proportion to the amount of target message present. Data analysis was performed using the Sequence Detection System software from Applied Biosystems.
Primers and probes were designed using Oligo Primer Analysis Software, Version 5.0 (National Biosciences Inc. (NBI)-Wojciech Rychlik, Cascade, Colo.). Primers were synthesized by Life Technologies (Grand Island, N.Y.) and probes were synthesized by Applied Biosystems. Primer/probe sets were designed from known sequences of rat genes to be analyzed. All target gene values were normalized to a reference gene, constitutively expressed cyclophilin. Primer/probe sets sequences can be found in Table 8
RNA was extracted from frozen (−70° C.) left ventricle (LV) tissue (approximately 10-20 mg) using 1.5 mL RNA-STAT 60 according to manufacturer's instructions (Leedo Medical Laboratories, Inc., Houston, Tex.). Briefly, tissues were homogenized using a tissue homogenizer equipped with a 5 mm probe (Ultra-Turrax T8 Homogenizer, IKA Works, Inc. Wilmington, N.C.). Following homogenization, an equal volume of molecular grade chloroform (Sigma Chemical Co., St. Louis, Mo.) was incubated with periodic mixing for 10 min at room temperature. Samples were centrifuged at 12,000 g for 10 min and RNA was precipitated from the top layer by adding an equal volume of molecular grade isopropanol (Sigma Chemical Co.) followed by an overnight incubation at −80° C.

[1] = mean ± SEM after 7 days of treatment, eplerenone 100 mg/kg/day
[2] = mean ± SEM after 14 days of treatment, eplerenone 100 mg/kg/day

## C[C@]12CCC(=O)C=C1CC[C@@H]1[C@@H]2[C@@H](O)C[C@]2(C=O)[C@@H](C(=O)CO)CC[C@@H]12 [Aldosterone]
14-day protocol, mRNA, individual rats and group Mean, listed as Aldosterone + salt
  ANP: 4.58 AU and 7.75 AU and 7.34 AU and 4.18 AU and 1.59 AU and 17.81 AU and 6.48 AU and 8.08 AU and 2.51 AU
14-day protocol, mRNA, individual rats and group Mean, listed as Aldosterone + salt, mean
  ANP: 6.70 AU
30-day protocol, mRNA, individual rats and group Mean, listed as Aldosterone + salt
  ANP: 23.59 AU and 43.11 AU and 14.83 AU (2×) and 18.90 AU and 23.43 AU and 15.14 AU and 6.77 AU and 20.97 AU
30-day protocol, mRNA, individual rats and group Mean, listed as Aldosterone + salt, group mean
  ANP: 20.17 AU
Aldosterone + salt vs vehicle + salt (Tables 11-13)
  ANP mRNA levels: Significant elevations
[1]
  ANP mRNA: 8.72 ± 1.51 AU
[2]
  ANP mRNA: 6.70 ± 1.59 AU
  ANP mRNA (AU): 20.17 ± 3.36 AU

## COC(=O)[C@@H]1CC2=CC(=O)CC[C@]2(C)[C@@]23O[C@@H]2C[C@@]2(C)[C@@H](CC[C@@]24CCC(=O)O4)[C@H]13 [Eplerenone]
14-day protocol, mRNA, individual rats and group Mean, listed as Eplerenone + aldosterone + salt
  ANP: 2.84 AU and 3.22 AU and 6.39 AU and 4.04 AU and 25.90 AU and 5.52 AU and 3.57 AU and 2.29 AU and 8.37 AU and 4.24 AU
14-day protocol, mRNA, individual rats and group Mean, listed as Eplerenone + aldosterone + salt, mean
  ANP: 6.64 AU
After 14 days of treatment, eplerenone 100 mg/kg/day
  ANP mRNA upregulation: not after 14 days
After 30 days of treatment, eplerenone 100 mg/kg/day
  ANP mRNA upregulation: significantly reduced
Individual rats and group mean, 7 days of treatment, mRNA relative to cyclophilin, aldosterone + salt, eplerenone 100 mg/kg/day
  ANP: 1.26 AU and 1.81 AU and 0.59 AU and 2.58 AU and 4.48 AU and 4.98 AU and 3.82 AU and 3.59 AU and 0.95 AU and 3.67 AU
Individual rats and group mean, 7 days of treatment, mRNA relative to cyclophilin, aldosterone + salt, eplerenone 100 mg/kg/day, group mean
  ANP: 2.77 AU
[1]
  ANP mRNA: 2.77 ± 0.49 AU
[2]
  ANP mRNA: 6.64 ± 2.22 AU
  ANP mRNA (AU): 9.20 ± 2.44 AU
